Key:
[1] = Plasma pharmacokinetics of isorhapontigenin in Sprague-Dawley rats (LC–MS/MS); assay type: in vivo; settings: rat
Experimental: This in vivo study was conducted with strict adherence to the “Guidelines on the Care and Use of Animals for Scientific Purposes” (Singapore). The pharmacokinetic study design and animal handling procedures were reviewed and approved by the Institutional Animal Care and Use Committee of the National University of Singapore (NUS; R15-1273). All animal experiments were carried out in a specific pathogen-free animal facility (temperature: 22 ± 1°C; humidity: 60–70%) in Comparative Medicine, NUS. Sprague-Dawley rats (male, 9–10 weeks old, weight: 300–350 g) were purchased from InVivos (Singapore). The rats were housed under a 12 h light–dark cycle with free access to food and water. On the day before the pharmacokinetic study, surgery was performed under isoflurane anesthesia and a catheter (polyethylene tube, i.d. = 0.580 mm, o.d. = 0.965 mm, Becton Dickinson, Sparks, MD, United States) was implanted into the right jugular vein. Intravenous ISO administration and blood collection were carried out via this cannula. To prevent cross-contamination and blood clotting, ∼0.3 mL heparin-saline (10 I.U./mL) was flushed through the cannula after intravenous dosing or each blood collection. This reliable pharmacokinetic model has been routinely used in our laboratory to assess the pharmacokinetic profiles of resveratrol and its derivatives ([Yeo et al., 2013a],[b], [2017]; [Choo et al., 2014]; [Chen et al., 2015], [2016b],[c]; [Dai et al., 2018]).
0.3 M HP-β-CD was used to formulate ISO into a solution for intravenous injection while 0.3% CMC (w/v) was applied as a suspending vehicle for oral delivery ([Yeo et al., 2017]). To enhance the stability of ISO, L-ascorbic acid (final concentration: 0.1 mg/mL) was spiked into both intravenous and oral formulations ([Yeo et al., 2017]). The concentrations of ISO in intravenous and oral formulations were 5 and 13.3 mg/mL, respectively.
(§1) Twenty-two rats were divided into four groups. Group 1 (n = 5) received a single bolus intravenous injection of ISO at the dose of 90 μmol/kg (23.2 mg/kg). Serial blood samples were collected before dosing and at 5, 15, 30, 60, 90, 120, 180, 240, 300, 420, 540, and 720 min after intravenous injection. Group 2 (n = 5) received a single oral administration of ISO at the dose of 200 μmol/kg (51.6 mg/kg). Serial blood samples were collected before dosing and at 15, 30, 45, 60, 90, 120, 180, 240, 300, 420, 540, and 720 min after oral gavage. Group 3 (n = 5) received daily oral pre-treatment of oral dosing vehicle (2 mL/kg) while Group 4 (n = 7) received daily oral pre-treatment of ISO at the dose of 100 μmol/kg (25.8 mg/kg) for 1 week. On day 7, ∼8–10 h after the last pre-treatment dose, surgery was performed on rats in Groups 3 and 4 for jugular vein cannulation, and blood samples were also collected from Groups 3 and 4 for metabolomic study. On day 8, the pharmacokinetic study was carried out on these two groups of animals at the dose of 100 μmol/kg (25.8 mg/kg) using the same blood sampling schedule as Group 2.
All blood samples during the pharmacokinetic study were collected in heparinized tubes containing L-ascorbic acid (final concentration = 0.8 mg/mL) to ensure stability of ISO ([Yeo et al., 2017]). The samples were centrifuged at 5000 g for 5 min, and the plasma was harvested and stored at −40°C until LC–MS/MS analysis.
The LC–MS/MS analysis was carried out using an Agilent 1290 Infinity Liquid Chromatography system (Agilent Technologies, Santa Clara, CA, United States), which is coupled to an ABSciex QTRAP® 5500 mass spectrometer (AB Sciex, Framingham, MA, United States) and equipped with a TurboIon Spray probe (AB Sciex). The LC–MS/MS system was controlled by the Analyst 1.5.2 software (AB Sciex) and chromatographic data analysis was performed using the same software. […]

[2] = Body weight before and after 1-week ISO intervention; assay type: in vivo, Sprague-Dawley rats; settings: 1-week daily oral ISO 100 μmol/kg, normal diet; p = 0.74 and 0.89
Experimental: as §1
One-week daily oral dosing of ISO decreased plasma levels of some di-aminoacid and N-acetyl amino acids such as glycyl-glycine, N-acetyl-glycine, N-acetyl-glutamine, and N-acetyl-orthinine. […] In this study, the healthy Sprague-Dawley rats were fed with normal diet. […]

[3] = Group 1, single intravenous 90 μmol/kg, HP–β–CD
[4] = Group 2, single oral 200 μmol/kg, suspension
[5] = Group 3, oral 100 μmol/kg after 1-week vehicle pre-treatment, suspension
[6] = Group 4, oral 100 μmol/kg after 1-week daily oral ISO 100 μmol/kg pre-treatment, suspension
[7] = male, Sprague-Dawley, plasma, po, 100 umol/kg, Group 3, oral 100 μmol/kg after 1-week vehicle pre-treatment, suspension
[8] = male, Sprague-Dawley, plasma, po, 100 umol/kg, Group 4, oral 100 μmol/kg after 1-week daily oral ISO 100 μmol/kg pre-treatment, suspension
[9] = male, Sprague-Dawley, plasma, po, 200 umol/kg, Group 2, single oral 200 μmol/kg, suspension
[10] = single intravenous 90 μmol/kg, resveratrol data ref Chen et al., 2016c
[11] = single oral 200 μmol/kg, resveratrol data ref Chen et al., 2016c

COc1cc(/C=C/c2cc(O)cc(O)c2)ccc1O [isorhapontigenin, trans-3,5,4′-trihydroxy-3′-methoxystilbene]
AUC0→last /Dose [1, 3]: 14.2 ± 5.2 kg⋅min/L
V [1, 3]: 0.893 ± 0.103 L/kg
AUC0→last /Dose [1, 4]: 4.28 ± 0.94 kg⋅min/L
Cmax /Dose [1, 4]: 27800 ± 3200 µg/mL
AUC0→last /Dose [1, 5]: 2.54 ± 0.69 kg⋅min/L
Cmax /Dose [1, 5]: 29200 ± 2800 µg/mL
AUC0→last /Dose [1, 6]: 2.97 ± 0.80 kg⋅min/L
Cmax /Dose [1, 6]: 23900 ± 6200 µg/mL
clearance ([1]; male, Sprague-Dawley, plasma, 90 umol/kg, Group 1, single intravenous 90 μmol/kg, HP–β–CD): 76.8 ± 23.7 mL/min/kg
Tmax ([1]; male, Sprague-Dawley, plasma, 100 umol/kg, Group 3, oral 100 μmol/kg after 1-week vehicle pre-treatment, suspension): 0.25 h
Tmax ([1]; male, Sprague-Dawley, plasma, 200 umol/kg, Group 2, single oral 200 μmol/kg, suspension): 0.25 to 0.75 h
MRT ([1]; male, Sprague-Dawley, plasma, iv, 90 umol/kg, Group 1, single intravenous 90 μmol/kg, HP–β–CD): 0.313 h
MRT [1, 7]: 2.27 h
bioavailability [1, 7]: 17.9 ± 4.9%
MRT [1, 8]: 3.03 h
bioavailability [1, 8]: 20.8 ± 5.6%
MRT [1, 9]: 3.07 h
bioavailability [1, 9]: 30.1 ± 6.6%
CL relative to resveratrol [1, 10]: comparable to resveratrol
V relative to resveratrol [1, 10]: comparable to resveratrol
average MRT longer than resveratrol [1, 10]: ~70%
time ISO remained measurable in the systemic circulation after administration ([1]; single oral 100 μmol/kg): at least 12 h
F relative to resveratrol [1, 11]: two to three folds greater
dose normalized AUC0→t (AUC0→t/Dose) relative to resveratrol [1, 11]: two to three folds greater
dose normalized Cmax (Cmax/Dose) relative to resveratrol [1, 11]: two to three folds greater
body weights, vehicle vs ISO treatment group, before and after ISO intervention [2]: remained similar

— article PMC6050476, “Pre-clinical Pharmacokinetic and Metabolomic Analyses of Isorhapontigenin, a Dietary Resveratrol Derivative” (Frontiers in Pharmacology, 2018)
